The values below come from patent US20080108702A1, “Use of Acetyl-Leucine for Preparing a Drug for Treating Balance Disorders” (priority 2005, published 2008).

The subject of assay [1] is mouse median vestibular neurons (MVN). The experiment in a line: Electrophysiological study in current clamp mode on median vestibular neurons. It is filed as cell-based. To be noted: for effect on action potentials of depolarized neurons: depolarized neurons (approximately −35 mV), after several minutes of application; for Membrane potential: hyperpolarized neurons (approximately −70 mV); for Action potential frequency / Action potential height / Depolarization threshold / Resting potential: neurons spontaneously active at the resting potential. On the procedure: An electrophysiological study was conducted on mouse median vestibular neurons (MVN) in which the membrane potential was artificially maintained at various resting values. In this study, the effects of the D and L enantiomers of acetyl-leucine (1 mM) were tested on the membrane properties of neurons in “current clamp” mode at various membrane potential values: normal membrane potential (approximately −45 mV), potential maintained at a hyperpolarized level of approximately −70 mV or potential maintained at a depolarized level of approximately −35 mV.

Assay [2] relates to surgical unilateral neurotomy model in the cat. The experiment in a line: Surgical unilateral neurotomy model (preliminary tests). The format is in vivo.
Assay [3] relates to patients with an indication for acoustic neurinoma excision or for vestibular neurotomy. The experiment in a line: Ability to maintain a standing position eight days following neurotomy (randomized, placebo-controlled). The format is in vivo, human. Here is the method: Sixty patients with an indication for acoustic neurinoma excision or for vestibular neurotomy were included and randomized. Patients were treated for 60 days either with Tanganil® (six injections of two 500 mg vials by IV route, with an interval of 12 hours between injections, the first taking place one hour after the surgery, followed by an oral treatment at a dose of two 500 mg tablets, one in the morning and one in the evening) or with a placebo.
Vestibular deficit was measured according to the methods described in Vertigo and the practitioner [Les vertiges et le praticien] by P. Tran Ba Huy and C. De Waele (Coll Pathologie Sciences Formation [in French], Ed. John Libbey Eurotext, Paris, 1996) and in Vertigo [Les vertiges] by G. Rancurel, O. Sterkers, E. Vitte, foreword by G. Freyss (Ed. Méd. Spécia. [in French], 1989).
Vestibular reflex was tested at day zero (D0) before neurotomy by caloric testing to objectivize vestibular hyporeflexia or areflexia. This test consists of successively irrigating with warm water then cold the right external auditory meatus then the left, causing in the semicircular canal an endolymph current which moves the ampullary crest. Caloric response is expressed by the appearance of a nystagmus that beats toward the side of the stimulated ear when warm water is applied and toward the opposite side when cold water is applied. The nystagmic response was recorded by video nystagmography and its frequency calculated, i.e., the number of nystagmic beats occurring between the 60th and 90th seconds following the initiation of stimulation. This number quantifies the vestibular response.
The difference in responses between one ear and the other expresses so-called hypovalence, i.e., the difference between the warm and cold responses on the left side and the warm and cold responses on the right side, divided by the total number of responses. In normal subjects, hypovalence is less than 15%. Hypovalence is the main sign of damage to the peripheral vestibular apparatus.
The principle criterion was “able to maintain a standing position at D8” (Yes/No)

Assay [4] has the same test system. The experiment in a line: Symptoms (vertigo and vomiting) rated by patients on 10 cm visual analog scales (VAS). The format is in vivo, human. On the procedure:
Sixty patients with an indication for acoustic neurinoma excision or for vestibular neurotomy were included and randomized. Patients were treated for 60 days either with Tanganil® (six injections of two 500 mg vials by IV route, with an interval of 12 hours between injections, the first taking place one hour after the surgery, followed by an oral treatment at a dose of two 500 mg tablets, one in the morning and one in the evening) or with a placebo. Subjective signs (vertigo and vomiting) were rated by patients on a 10 cm VAS from “absent” to “highly incapacitating”.

Assay [5] shares this test system. The experiment in a line: Balance evaluated by static posturography. The format is in vivo, human. On the procedure:
Sixty patients with an indication for acoustic neurinoma excision or for vestibular neurotomy were included and randomized. Patients were treated for 60 days either with Tanganil® (six injections of two 500 mg vials by IV route, with an interval of 12 hours between injections, the first taking place one hour after the surgery, followed by an oral treatment at a dose of two 500 mg tablets, one in the morning and one in the evening) or with a placebo. Static posturography (not performed at D8 if the subject could not remain standing) was carried out in a standing position under four conditions (eyes open or closed, with or without foam carpeting). With foam carpeting and/or eyes closed, patients are placed under conditions which minimize the role of visual and proprioceptive information. Shifts in a subject's center of gravity during a given time period are recorded in a statokinesigram. This plot makes it possible to study oscillation amplitudes and surface areas. “Anteroposterior” oscillations can be separated from “right-left” oscillations.

The next assay concerns vertigo symptomatology. To be noted: clinical results reported by various authors; cited from earlier work.
For assay [6], the system named is guinea pig after unilateral labyrinthectomy. To be noted: cited from earlier work.
In assay [7] the test system is cats having undergone vestibular neurotomy. To be noted: oral route, 28 mg per kg per day; cats after vestibular neurotomy; cited from earlier work.

In the case of `CC(=O)N[C@@H](CC(C)C)C(=O)O` [Acetyl-L-leucine], the “effect on action potentials of depolarized neurons” value in assay [1] (1 mM) was “not observed”. In assay [1] (before application (baseline)), this compound yielded a Membrane potential of −70.0 ± 2.1 mV, an Action potential frequency of 14.1 ± 9.0 Hz, an Action potential height of 59.0 ± 7.3 mV and a Depolarization threshold of −30.4 ± 5.6 mV. For the same compound, the Resting potential in assay [1] (before application (baseline)) is given as −44.5 ± 2.1 mV. Besides, in assay [1] (during application, 1 mM), the Membrane potential is on record as −71.6 ± 3.2 mV, the Action potential frequency is 12.4 ± 7.8 Hz, the Action potential height amounted to 49.8 ± 11.4 mV and the Depolarization threshold is −27.7 ± 8.4 mV. The same compound displayed a Resting potential in assay [1] (during application, 1 mM) of −42.7 ± 3.7 mV. Also, the “activity in surgical unilateral neurotomy model” value in assay [2] is recorded as “active”.
Consider `CC(=O)N[C@H](CC(C)C)C(=O)O` [Acetyl-D-leucine], for which the “effect on action potentials of depolarized neurons” value in assay [1] (1 mM) is “action potentials stop due to blocking of the membrane potential at a more depolarized level”. In assay [1] (before application (baseline)), this compound returned a Membrane potential of −72.2 ± 5.2 mV, an Action potential frequency of 11.5 ± 6.8 Hz, an Action potential height of 59.0 ± 7.7 mV and a Depolarization threshold of −28.1 ± 4.5 mV. The same compound returned a Resting potential in assay [1] (before application (baseline)) of −42.7 ± 3.6 mV. In assay [1] (during application, 1 mM), this compound yielded a Membrane potential of −67.2 ± 4.6 mV, an Action potential frequency of 8.9 ± 7.7 Hz, an Action potential height of 50.7 ± 17.3 mV and a Depolarization threshold of −27.0 ± 10.2 mV. Besides, in assay [1] (during application, 1 mM), the Resting potential is −42.0 ± 3.6 mV. In assay [1] (hyperpolarized neurons, 1 mM), the “effect on the membrane potential of hyperpolarized neurons” value is on record as “significantly increases”. Moreover, the “activity in surgical unilateral neurotomy model” value in assay [2] is recorded as “active”.
Take `CC(=O)N[C@@H](CC(C)C)C(=O)O` (racemic) [Tanganil®, acetyl-leucine]: the “difference between the two treatment groups, able to maintain a standing position at D8” value is “no significant difference” in assay [3] (25 patients whose vestibular deficit was greater than 75%) and “statistically significant difference” in assay [3] (31 patients whose vestibular deficit was less than or equal to 75%, χ^2=0.048). Moreover, the “effect on compensation after neurotomy” value is “no effect” in assay [3] (patient population exhibiting no vestibular functioning before neurotomy) and “accelerates the compensation” in assay [3] (patients exhibiting residual vestibular functioning). Also, the “difference between Tanganil and placebo, able to maintain a standing position at D8” value in assay [3] (principle analysis of 49 patients) is given as “no statistically significant difference”. Also, the “patients able to maintain a standing position at D8” value stood at 59.1% in assay [3] (principle analysis of 49 patients, 13 of 22 patients given Tanganil, IV then oral treatment) and 75% in assay [3] (subgroup with vestibular deficit less than or equal to 75%, 12 of 16 patients). The “average change on the vertigo VAS” value in assay [4] (D8, vestibular deficit less than or equal to 75%) is −23.5 mm. Besides, the “difference vs placebo on vertigo VAS” value is “statistically significant difference” in assay [4] (D8, vestibular deficit less than or equal to 75%, Wilcoxon test p=0.037) and “no significant difference” in assay [4] (vestibular deficit greater than 75%, Wilcoxon test p=0.154). Moreover, the “difference vs placebo on vomiting VAS” value in assay [4] (vestibular deficit greater than 75%) is listed as “No significant difference”. In addition, the “effect on vomiting VAS vs placebo” value in assay [4] (vestibular deficit less than or equal to 75%, significant difference between the two groups) is “reduction in vomiting severity”. In addition, the “static posturography, difference vs placebo” value in assay [5] (D8, vestibular deficit greater than 75%, eyes open or closed and/or with or without foam) was “either no significant difference was observed between Tanganil® and the placebo or a significant difference was observed between the two groups in favor of the placebo”; in assay [5] (vestibular deficit less than or equal to 75%, regardless of experimental conditions) it was “significant difference between treatment groups in favor of Tanganil®”. The “right/left posturography (postural oscillations)” value is given as “+7.9 mm” in assay [5] (D8, vestibular deficit less than or equal to 75%, with foam, eyes open, p=0.034 vs placebo); “+5.4 mm” in assay [5] (vestibular deficit less than or equal to 75%, with foam, eyes closed, p=0.016 vs placebo); “+2.8 mm” in assay [5] (vestibular deficit less than or equal to 75%, without foam, eyes closed, p=0.028 vs placebo). The “right/left posturography, difference vs placebo” value in assay [5] (D8, without foam, eyes open test) is “no significant difference”. The “cases with improvement in vertigo symptomatology, including the disappearance of vertigo attacks” value in the assay on vertigo symptomatology is listed as “more than 95%”. In addition, the “effect on vestibular compensation” value in assay [6] (after unilateral labyrinthectomy in the guinea pig) is “accelerate vestibular compensation”. Moreover, in assay [6] (guinea pig), the “effect on normal vestibular functioning” value was “no effect”. Further, the “effect on recovery of locomotor equilibrium” value in assay [7] is “facilitates the recovery of locomotor equilibrium”.
